Assays:
NCI-H295R cells = experiment: Proliferation inhibitory action on NCI-H295R (CellTiter-Glo, 7 days); assay type: cell-based, human; details: Homo sapiens, NCI-H295R, 168 h
Description: DMSO solutions of each compound were serially diluted with DMSO using a D300e Digital Dispenser (TECAN), and added to a 384-well plate (Thermo Fisher Scientific Inc.). NCI-H295R cells were seeded in a 384-well plate at 2×10^3 cells/40 μL/well and cultured for 7 days in a 37° C., 5% CO2 incubator. […] On the first day of culture (day 0) and the seventh day of culture (day 7), 10 μL/well of CellTiter-Glo (registered trademark) 2.0 Assay (Promega) was added, and the luminescence signal was detected using a multimode plate reader (EnVision, PerkinElmer). The cell proliferation rate was calculated from the luminescence amount on the day of compound addition (CO), the luminescence amount of the compound-free group after 7 days of culture (C7), and the luminescence amount of the compound-added group (T7), based on the following formula.

SF-1 = molecular target: T1, SF-1 (Homo sapiens, UniProt Q13285); experiment: SF1 degradation induction in NCI-H295R SF-1-HiBiT cells (HiBiT DC50); assay type: cell-based; details: 24 hr, concentration that induces 50% degradation of SF-1
T1 construct: NCI-H295R SF-1-HiBiT cells with HiBiT tag knocked in at the endogenous SF1 locus; host or cells: NCI-H295R SF-1-HiBiT (knock-in at endogenous locus)
Description: NCI-H295R SF-1-HiBiT cells were seeded in a 384-well plate (Thermo Fisher Scientific Inc.) at 1×10^4 cells/50 μL/well and cultured at 37° C. in a 5% CO2 incubator for 24 hr. DMSO solutions of each compound were serially diluted with DMSO using a D300e Digital Dispenser (TECAN), added to a 384-well plate, and cultured in a 5% CO2 incubator at 37° C. for 24 hr. […] After completion of culture, the medium was discarded, and Nano-Glo (registered trade mark) HiBiT Lytic Detection System (Promega, Cat. No. N3040) was added at 20 μL/well and stirred with a plate mixer. Luminescence signals were then detected using a multimode plate reader (EnVision Xcite, PerkinElmer). The SF-1 protein degradation rate was calculated from the amount of luminescence (C) in the compound-free group and the amount of luminescence (T) in the compound-added group, based on the following formula.
The obtained data was analyzed using GraphPad Prism9 (GraphPad Software Inc.) or Genedata Screener (Genedata AG) to calculate the concentration that induces 50% degradation of SF-1 (DC50 value).

Row | GI50 (NCI-H295R cells) [nM] | DC50 (SF-1) [nM] | SMILES
1 | 121 | 6.9 | COc1ccc([C@]2(CCN(Cc3ccc(OC4CC5(CCN(CC(=O)Nc6ccc7c(c6)CN(C6CCC(=O)NC6=O)C7=O)CC5)C4)cc3)CC(C)(C)C(F)(F)F)CCOC(C)(C)C2)cc1 (stereo partly drawn) [Example AF1, N-[2-(2,6-Dioxopiperidin-3-yl)-1-oxo-2,3-dihydro-1H-isoindol-5-yl]-2-[2-(4-{[{2-[(4R)-4-(4-methoxyphenyl)-2,2-dimethyltetrahydro-2H-pyran-4-yl]ethyl}(3,3,3-trifluoro-2,2-dimethylpropyl)amino]methyl}phenoxy)-7-azaspiro[3.5]nonan-7-yl]acetamide]
2 | 124 | 2.6 | COc1ccc([C@]2(CCN(CC3CC=C(c4ccc(NC(=O)C5CC(Nc6ccc7c(c6)n(C)c(=O)n7C6CCC(=O)NC6=O)C5)c(F)c4)CC3)CC(C)(C)C(F)(F)F)CCOC(C)(C)C2)cc1 (stereo partly drawn) [BE5, 3-{[1-(2,6-Dioxopiperidin-3-yl)-3-methyl-2-oxo-2,3-dihydro-1H-benzimidazol-5-yl]amino}-N-(3-fluoro-4′-{[{2-[(4R)-4-(4-methoxyphenyl)-2,2-dimethyltetrahydro-2H-pyran-4-yl]ethyl}(3,3,3-trifluoro-2,2-dimethylpropyl)amino]methyl}-2′,3′,4′,5′-tetrahydro[biphenyl]-4-yl)cyclobutanecarboxamide]
3 | 43 | 10 | COc1ccc([C@]2(CCN(Cc3ccc(OC4CCN(CC(=O)Nc5cccc6c5n(C)c(=O)n6C5CCC(=O)NC5=O)CC4)cc3)CC(C)(C)C(F)(F)F)CCOC(C)(C)C2)cc1 (stereo partly drawn) [Example Z8, N-[1-(2,6-Dioxopiperidin-3-yl)-3-methyl-2-oxo-2,3-dihydro-1H-benzimidazol-4-yl]-2-[4-(4-{[{2-[(4R)-4-(4-methoxyphenyl)-2,2-dimethyltetrahydro-2H-pyran-4-yl]ethyl)(3,3,3-trifluoro-2,2-dimethylpropyl)amino]methyl}phenoxy)piperidin-1-yl]acetamide]
4 | 85 | 13 | COc1ccc([C@]2(CCN(Cc3ccc(C4=CC[C@H](C(=O)N5CCN(Cc6ccc7c8c6CN(C)CCn8c(=O)n7C6CCC(=O)NC6=O)CC5)CC4)c(F)c3)CC(C)(C)C(F)(F)F)CCOC(C)(C)C2)cc1 (stereo partly drawn) [CB10, 3-{8-[(4-{[(4R)-2′-Fluoro-4′-{[{2-[(4R)-4-(4-methoxyphenyl)-2,2-dimethyltetrahydro-2H-pyran-4-yl]ethyl}(3,3,3-trifluoro-2,2-dimethylpropyl)amino]methyl}-2,3,4,5-tetrahydro[biphenyl]-4-yl]carbonyl}piperazin-1-yl)methyl]-6-methyl-2-oxo-4,5,6,7-tetrahydroimidazo[4,5,1-jk][1,4]benzodiazepin-1(2H)-yl}piperidine-2,6-dione]
5 | 47 | 6.9 | COc1ccc([C@]2(CCN(Cc3ccc(OC4CC5(CCN(CC(=O)Nc6cccc7c6n(C)c(=O)n7C6CCC(=O)NC6=O)CC5)C4)cc3)CC(C)(C)C(F)(F)F)CCOC(C)(C)C2)cc1 (stereo partly drawn) [Example AD1, N-[1-(2,6-Dioxopiperidin-3-yl)-3-methyl-2-oxo-2,3-dihydro-1H-benzimidazol-4-yl]-2-[2-(4-{[{2-[(4R)-4-(4-methoxyphenyl)-2,2-dimethyltetrahydro-2H-pyran-4-yl]ethyl}(3,3,3-trifluoro-2,2-dimethylpropyl)amino]methyl}phenoxy)-7-azaspiro[3.5]nonan-7-yl]acetamide]
6 | 106 | 7.3 | Cn1c(=O)n(C2CCC(=O)NC2=O)c2ccc(C(=O)N3CCN(CC4CC=C(c5ccc(CN(CC[C@@]6(c7ccc(OC(F)F)cc7)CCOC(C)(C)C6)CC(C)(C)C(F)(F)F)cc5)CC4)CC3)cc21 (stereo partly drawn) [AM10, 3-[5-({4-[(4′-{[(2-{(4R)-4-[4-(Difluoromethoxy)phenyl]-2,2-dimethyltetrahydro-2H-pyran-4-yl}ethyl) (3,3,3-trifluoro-2,2-dimethylpropyl)amino]methyl}-2,3,4,5-tetrahydro[biphenyl]-4-yl)methyl]piperazin-1-yl}carbonyl)-3-methyl-2-oxo-2,3-dihydro-1H-benzimidazol-1-yl]piperidine-2,6-dione]
7 | 39 | 5.4 | COc1ccc([C@]2(CCN(Cc3ccc(C4=CC[C@H](CN5CCN(C(=O)c6ccc7c(c6)n(C)c(=O)n7[C@@H]6CCC(=O)NC6=O)CC5)CC4)cc3)CC(C)(C)C(F)(F)F)CCOC(C)(C)C2)cc1 [AO7, (3R)-3-{5-[(4-{[(4R)-4′-{[{2-[(4R)-4-(4-Methoxyphenyl)-2,2-dimethyltetrahydro-2H-pyran-4-yl]ethyl}(3,3,3-trifluoro-2,2-dimethylpropyl)amino]methyl}-2,3,4,5-tetrahydro[biphenyl]-4-yl]methyl}piperazin-1-yl)carbonyl]-3-methyl-2-oxo-2,3-dihydro-1H-benzimidazol-1-yl}piperidine-2,6-dione]
8 | 147 | 8.7 | COc1ccc([C@]2(CCN(Cc3ccc(C4=CCC(CN5CCN(C(=O)c6ccc7c(c6)CN(C6CCC(=O)NC6=O)C7=O)CC5)CC4)cc3)CC(C)(C)C(F)(F)F)CCOC(C)(C)C2)cc1 (stereo partly drawn) [Example AG7, 3-[5-({4-[(4′-{[{2-[(4R)-4-(4-Methoxyphenyl)-2,2-dimethyltetrahydro-2H-pyran-4-yl]ethyl}(3,3,3-trifluoro-2,2-dimethylpropyl)amino]methyl}-2,3,4,5-tetrahydro[biphenyl]-4-yl)methyl]piperazin-1-yl}carbonyl)-1-oxo-1,3-dihydro-2H-isoindol-2-yl]piperidine-2,6-dione]
9 | 56 | 4.1 | COc1ccc([C@]2(CCN(Cc3ccc(C4=CCC(C(=O)N5CCN(Cc6ccc7c(c6)n(C)c(=O)n7C6CCC(=O)NC6=O)CC5)CC4)c(C)c3)CC(C)(C)C(F)(F)F)CCOC(C)(C)C2)cc1 (stereo partly drawn) [AS7, 3-[5-({4-[(4′-{[{2-[(4R)-4-(4-Methoxyphenyl)-2,2-dimethyltetrahydro-2H-pyran-4-yl]ethyl)(3,3,3-trifluoro-2,2-dimethylpropyl)amino]methyl}-2′-methyl-2,3,4,5-tetrahydro[biphenyl]-4-yl)carbonyl]piperazin-1-yl}methyl)-3-methyl-2-oxo-2,3-dihydro-1H-benzimidazol-1-yl]piperidine-2,6-dione]
10 | 73 | 26 | COc1ccc(C2(CCN(Cc3ccc(OC4CCN(CC(=O)Nc5cccc6c5n(C)c(=O)n6C5CCC(=O)NC5=O)CC4)cc3)CC(C)(C)C(F)(F)F)CCOCC2)cc1 (centres unmarked) [Example AC6, N-[1-(2,6-Dioxopiperidin-3-yl)-3-methyl-2-oxo-2,3-dihydro-1H-benzimidazol-4-yl]-2-[4-(4-{[{2-[4-(4-methoxyphenyl)tetrahydro-2H-pyran-4-yl]ethyl}(3,3,3-trifluoro-2,2-dimethylpropyl)amino]methyl}phenoxy)piperidin-1-yl]acetamide]
11 | 129 | 15 | COc1ccc([C@]2(CCN(Cc3ccc(C4=CC[C@H](C(=O)N5CCC(Nc6ccc7c(c6)CN(C6CCC(=O)NC6=O)C7=O)CC5)CC4)cc3)CC(C)(C)C(F)(F)F)CCOC(C)(C)C2)cc1 (stereo partly drawn) [BO4, 3-{5-[(1-{[(4R)-4′-{[{2-[(4R)-4-(4-Methoxyphenyl)-2,2-dimethyltetrahydro-2H-pyran-4-yl]ethyl)(3,3,3-trifluoro-2,2-dimethylpropyl)amino]methyl}-2,3,4,5-tetrahydro[biphenyl]-4-yl]carbonyl}piperidin-4-yl)amino]-1-oxo-1,3-dihydro-2H-isoindol-2-yl}piperidine-2,6-dione]
12 | 61 | 7.1 | COc1ccc([C@]2(CCN(Cc3ccc(C4=CCC(CN5CCN(Cc6ccc7c(c6)n(C)c(=O)n7C6CCC(=O)NC6=O)CC5=O)CC4)cc3)CC(C)(C)C(F)(F)F)CCOC(C)(C)C2)cc1 (stereo partly drawn) [AX3, 3-[5-({4-[(4′-{[{2-[(4R)-4-(4-Methoxyphenyl)-2,2-dimethyltetrahydro-2H-pyran-4-yl]ethyl)(3,3,3-trifluoro-2,2-dimethylpropyl)amino]methyl}-2,3,4,5-tetrahydro[biphenyl]-4-yl)methyl]-3-oxopiperazin-1-yl}methyl)-3-methyl-2-oxo-2,3-dihydro-1H-benzimidazol-1-yl]piperidine-2,6-dione]
13 | 43 | 3.1 | COc1ccc([C@]2(CCN(Cc3ccc(C4=CC[C@@H](C(=O)N5CCC(Nc6ccc7c8c6CCCn8c(=O)n7C6CCC(=O)NC6=O)CC5)CC4)c(F)c3)CC(C)(C)C(F)(F)F)CCOC(C)(C)C2)cc1 (stereo partly drawn) [BL4, 3-{7-[(1-{[(4S)-2′-Fluoro-4′-{[{2-[(4R)-4-(4-methoxyphenyl)-2,2-dimethyltetrahydro-2H-pyran-4-yl]ethyl)(3,3,3-trifluoro-2,2-dimethylpropyl)amino]methyl}-2,3,4,5-tetrahydro[biphenyl]-4-yl]carbonyl}piperidin-4-yl)amino]-2-oxo-5,6-dihydro-4H-imidazo[4,5,1-ij]quinolin-1(2H)-yl}piperidine-2,6-dione]

Reference: patent US12606533B2, “3-phenylpropylamine derivative” (DAIICHI SANKYO COMPANY, LIMITED, priority 2023, dated 2026)
